Laboratory results from ChEMBL document CHEMBL1123339, “Ligand-receptor interactions via hydrogen-bond formation. Synthesis and pharmacological evaluation of pyrrolo and pyrido analogues of the cardiotonic agent 7-hydroxycyclindole” (1986).

Species on record: Felis catus
Assay: Compound was evaluated for positive inotropic activity in vitro on cat papillary muscle, expressed as the percent increase over base-line contractility at 1 x 10 e-4 M
Format: functional

| Compound | Increase |
| --- | --- |
| CN(C)C1CCc2c(c3ccc4ncccc4c3n2C)C1 (stereo not given) | 69% |
| CN(C)C1CCc2[nH]c3c(ccc4ncccc43)c2C1 (stereo not given) | 80% |
| CN(C)C1CCc2[nH]c3cc(O)ccc3c2C1 (stereo not given) | 50% |
| CN(C)C1CCc2[nH]c3c(ccc4[nH]ccc43)c2C1 (stereo not given) | 15% |
| Nc1cc(-c2ccncc2)c[nH]c1=O [INAMRINONE] | 50% |
